Measurements as given in patent US7795457B2, “Carbamate compounds” (Kosan Biosciences Incorporated, priority 2007, dated 2010).
Where two headings read alike, the source gives them in different places.

Experiments:
[1] = tested on: CRM1 substrate RanBP1; assay: Nuclear export block (RanBP1 localization, recovery after compound removal); assay type: cell-based; conditions: recovery of cytoplasmic RanBP1 localization after compound washout (typically 1 h exposure; 8, 24 or 48 h recovery)
Procedure: The nuclear export blocking capability of compounds of this invention was evaluated as follows:
1-5×10^4 cells were seeded onto 12 mm glass coverslips or wells of a chamber slide (for example, Lab-Tek #177445). Cells were grown overnight at 37° C. to allow cells to attach to the surface. Media was removed and replaced with media containing the desired test compound and incubated the required time period (typically 1 h). For recovery experiments, cells were washed with PBS or media and incubated in media without test compound for the desired recovery periods (typically 8, 24, or 48 h). The media was removed and coverslips/wells were washed with PBS pH 7.4 for 1 minute. Coverslips or slides were fixed with 3.7% formaldehyde in PBS for 20 minutes at room temperature, washed three times in PBS, and stained for the CRM1 substrate RanBP1.
Coverslips or chamber slides were permeabilized and blocked in 10% donkey serum, 0.1% Triton X-100 in PBS for 30 minutes at room temperature. Primary antibodies were diluted in PBS and incubated for 1 hour at room temperature: goat-anti-RanBP1 (Santa Cruz Biotechnology, sc-1160; 1:50 dilution) and mouse-anti-tubulin (Sigma, T9026; 1:400). Cells were washed 3×5 minutes in PBS. Secondary antibodies donkey-anti-goat Cy3 (705-165-147, Jackson Immunoresearch) and donkey anti-mouse FITC (715-095-150, Jackson Immunoresearch) were diluted 1:200 in PBS and incubated for 1 hour at room temperature. Secondary antibody was removed and cells were stained with a nuclear dye such as DAPI (Sigma, D8417; 2.5 ug/mL in PBS) or Hoechst 33342 (Molecular Probes, H3570; 100 ng/mL in PBS) for 5 minutes at room temperature. Cells were washed 3×5 minutes in PBS and coverslips were mounted with FluorSave (EMD Biosciences, 80058-108). Nuclear (N) or cytoplasmic (C) localization of RanBP1 was examined using a 40× objective on a Zeiss Axiovert 200 inverted epiflourescence microscope. Nuclear localization (N>C) was confirmed after the initial drugging period.

[2] = tested on: HCT-116; assay: Inhibition of tumor cell proliferation, HCT-116; assay type: cell-based, human; conditions: Homo sapiens, read-out: Cancer Cell Line (IC50, nM) HCT-116
Procedure: (§1) The biological activity of compounds of this invention was evaluated by measuring their inhibitory effect on the proliferation of various tumor cell lines. HCT-116 is a human colon cancer cell line. LNCap is a human prostate cancer cell line. SiHa is an HPV-16 positive human cervical cancer line.

[3] = tested on: LNCap; assay: Inhibition of tumor cell proliferation, LNCap; assay type: cell-based, human; conditions: Homo sapiens, LNCaP, read-out: Cancer Cell Line (IC50, nM) LNCap
Procedure: as §1

[4] = tested on: SiHa; assay: Inhibition of tumor cell proliferation, SiHa; assay type: cell-based, human; conditions: Homo sapiens, SiHa, read-out: Cancer Cell Line (IC50, nM) SiHa
Procedure: as §1

[5] = tested on: A-498; assay: Inhibition of tumor cell proliferation, A-498; assay type: cell-based; conditions: Homo sapiens, A498; exposure time 1 h
Procedure: as §1
(§2) Table D presents additional data for the activity of compounds A-1 and A-4 against various cell lines. In some instances, comparative data against leptomycin B (LMB) and/or compound VI (Dong et al., US 2005/0272727 A1 (2005) is also provided.
(§3) The additional cell lines tested against represent a variety of different cancers: bladder cancer (UM-UC-3), breast cancer (BT474, HCC1937, MDA-MB468, NCI-ADR), CNS cancer (U87MG (glioma), SKNSH (neuroblastoma)), colon cancer (LoVo, LS411N, LS513), head and neck cancer (CAL-27, FaDu), leukemia (CCRF-CEM, MOLT-4), liver cancer (HepG2), lung cancer (A549, NCI-H23, NCI-H358), melanoma (Colo829), ovarian cancer (OVCAR-4), pancreatic cancer (BxPC-3, Mia-PaCa2), prostate cancer (22Rv1, PC-3), and renal cancer (A-498, Caki-1).

[6] = tested on: A549; assay: Inhibition of tumor cell proliferation, A549; assay type: cell-based; conditions: Homo sapiens, A549, 1 h, read-out: IC50, nM, A549
Procedure: as §1, §2, §3

[7] = tested on: Caki-1; assay: Inhibition of tumor cell proliferation, Caki-1; assay type: cell-based; conditions: Homo sapiens, exposure time 1 h
Procedure: as §1, §2, §3

[8] = tested on: CCRF-CEM; assay: Inhibition of tumor cell proliferation, CCRF-CEM; assay type: cell-based; conditions: Homo sapiens, exposure time 72 h
Procedure: as §1, §2, §3

[9] = tested on: LoVo; assay: Inhibition of tumor cell proliferation, LoVo; assay type: cell-based; conditions: Homo sapiens, exposure time 1 h
Procedure: as §1, §2, §3

[10] = tested on: MDA-MB-468; assay: Inhibition of tumor cell proliferation, MDA-MB-468; assay type: cell-based; conditions: Homo sapiens, exposure time 1 h
Procedure: as §1, §2, §3

[11] = tested on: MOLT-4; assay: Inhibition of tumor cell proliferation, MOLT-4; assay type: cell-based; conditions: Homo sapiens, exposure time 72 h
Procedure: as §1, §2, §3

[12] = tested on: NCI-ADR; assay: Inhibition of tumor cell proliferation, NCI-ADR; assay type: cell-based; conditions: Homo sapiens, NCI/ADR-RES, read-out: IC50, nM, NCI-ADR
Procedure: as §1, §2, §3

[13] = tested on: PC-3; assay: Inhibition of tumor cell proliferation, PC-3; assay type: cell-based; conditions: Homo sapiens
Procedure: as §1, §2, §3

[14] = tested on: SKNSH; assay: Inhibition of tumor cell proliferation, SKNSH; assay type: cell-based; conditions: Homo sapiens, SK-N-SH, read-out: IC50, nM, SKNSH
Procedure: as §1, §2, §3

[15] = tested on: 22Rv1; assay: Inhibition of tumor cell proliferation, 22Rv1; assay type: cell-based; conditions: Homo sapiens
Procedure: as §1, §2, §3

[16] = tested on: BT474; assay: Inhibition of tumor cell proliferation, BT474; assay type: cell-based; conditions: Homo sapiens, BT-474
Procedure: as §1, §2, §3

[17] = tested on: CAL-27; assay: Inhibition of tumor cell proliferation, CAL-27; assay type: cell-based; conditions: Homo sapiens
Procedure: as §1, §2, §3

[18] = tested on: Colo829; assay: Inhibition of tumor cell proliferation, Colo829; assay type: cell-based; conditions: Homo sapiens, COLO-829
Procedure: as §1, §2, §3

[19] = tested on: FaDu; assay: Inhibition of tumor cell proliferation, FaDu; assay type: cell-based; conditions: Homo sapiens
Procedure: as §1, §2, §3

[20] = tested on: HCC1937; assay: Inhibition of tumor cell proliferation, HCC1937; assay type: cell-based; conditions: Homo sapiens
Procedure: as §1, §2, §3

[21] = tested on: HepG2; assay: Inhibition of tumor cell proliferation, HepG2; assay type: cell-based; conditions: Homo sapiens
Procedure: as §1, §2, §3

[22] = tested on: LS411N; assay: Inhibition of tumor cell proliferation, LS411N; assay type: cell-based; conditions: Homo sapiens, LS-411N
Procedure: as §1, §2, §3

[23] = tested on: LS513; assay: Inhibition of tumor cell proliferation, LS513; assay type: cell-based; conditions: Homo sapiens, LS-513
Procedure: as §1, §2, §3

[24] = tested on: Mia-PaCa2; assay: Inhibition of tumor cell proliferation, Mia-PaCa2; assay type: cell-based; conditions: Homo sapiens, MIA PaCa-2
Procedure: as §1, §2, §3

[25] = tested on: NCI-H23; assay: Inhibition of tumor cell proliferation, NCI-H23; assay type: cell-based; conditions: Homo sapiens
Procedure: as §1, §2, §3

[26] = tested on: NCI-H358; assay: Inhibition of tumor cell proliferation, NCI-H358; assay type: cell-based; conditions: Homo sapiens
Procedure: as §1, §2, §3

[27] = tested on: OVCAR-4; assay: Inhibition of tumor cell proliferation, OVCAR-4; assay type: cell-based; conditions: Homo sapiens
Procedure: as §1, §2, §3

[28] = tested on: U87MG; assay: Inhibition of tumor cell proliferation, U87MG; assay type: cell-based; conditions: Homo sapiens, U-87 MG
Procedure: as §1, §2, §3

[29] = tested on: UM-UC-3; assay: Inhibition of tumor cell proliferation, UM-UC-3; assay type: cell-based; conditions: Homo sapiens, read-out: IC50, nM, UM-UC-3
Procedure: as §1, §2, §3

CC(=C/[C@H](C)C/C=C/C(C)=C/[C@@H](C)C(=O)[C@@H](C)[C@H](O)[C@@H](C)C/C(C)=C/COC(=O)NCc1ccccc1)/C=C/[C@H]1CC=CC(=O)O1 [Compound A-1]
Nuclear Export Block [1]: Slow recovery | IC50 ([2]; HCT-116, 1 h): 14.9 nM | IC50 ([2]; HCT-116, 72 h): 3.3 nM | IC50 ([3]; 1 h): 4.7 nM | IC50 ([3]; 72 h): 1.8 nM | IC50 ([4]; 1 h): 3.6 nM | IC50 ([4]; 72 h): 1.1 nM | IC50 [5]: 16 nM | IC50 [6]: 23.5 nM | IC50 [7]: 6.6 nM | IC50 [8]: 4.2 nM | IC50 [9]: 10.3 nM | IC50 [10]: 30.6 nM | IC50 [11]: 3.2 nM | IC50 ([12]; 1 h): 194 nM | IC50 ([12]; 72 h): 20.6 nM | IC50 ([13]; exposure time 1 h): 7.4 nM | IC50 ([13]; exposure time 72 h): 2.7 nM | IC50 ([14]; 1 h): 5.1 nM | IC50 ([14]; 72 h): 1.5 nM

CC(=C/[C@H](C)C/C=C/C(C)=C/[C@@H](C)C(=O)[C@@H](C)[C@H](OC(N)=O)[C@@H](C)C/C(C)=C/COC(N)=O)/C=C/[C@H]1CC=CC(=O)O1 [Compound A-4]
Nuclear Export Block [1]: Moderate recovery | IC50 ([2]; HCT-116, 1 h): 13.1 nM | IC50 ([2]; HCT-116, 72 h): 2.2 nM | IC50 ([3]; 1 h): 6.6 nM | IC50 ([3]; 72 h): 1.5 nM | IC50 ([4]; 1 h): 3.6 nM | IC50 ([4]; 72 h): 0.8 nM | IC50 ([15]; exposure time 1 h): 4.6 nM | IC50 ([15]; exposure time 72 h): 0.7 nM | IC50 [5]: 16 nM | IC50 ([16]; exposure time 1 h): 3.8 nM | IC50 ([16]; exposure time 72 h): 2.3 nM | IC50 ([17]; exposure time 1 h): 2.8 nM | IC50 ([17]; exposure time 72 h): 0.5 nM | IC50 ([18]; exposure time 1 h): 4.6 nM | IC50 ([18]; exposure time 72 h): 0.9 nM | IC50 ([19]; exposure time 1 h): 27.9 nM | IC50 ([19]; exposure time 72 h): 1.6 nM | IC50 ([20]; exposure time 1 h): 42.3 nM | IC50 ([20]; exposure time 72 h): 7.3 nM | IC50 ([21]; exposure time 1 h): 7.8 nM | IC50 ([21]; exposure time 72 h): 0.8 nM | IC50 ([22]; exposure time 1 h): 9.4 nM | IC50 ([22]; exposure time 72 h): 1.6 nM | IC50 ([23]; exposure time 1 h): 6.3 nM | IC50 ([23]; exposure time 72 h): 1 nM | IC50 ([24]; exposure time 1 h): 49.7 nM | IC50 ([24]; exposure time 72 h): 10.8 nM | IC50 ([12]; 1 h): 771 nM | IC50 ([12]; 72 h): 71.3 nM | IC50 ([25]; exposure time 1 h): 8.5 nM | IC50 ([25]; exposure time 72 h): 1.3 nM | IC50 ([26]; exposure time 1 h): 5.6 nM | IC50 ([26]; exposure time 72 h): 0.7 nM | IC50 ([27]; exposure time 1 h): 80 nM | IC50 ([27]; exposure time 72 h): 8.8 nM | IC50 ([28]; exposure time 1 h): 25.5 nM | IC50 ([28]; exposure time 72 h): 1.5 nM | IC50 ([29]; UMUC3, 1 h): 7 nM | IC50 ([29]; UMUC3, 72 h): 1.4 nM
